According to PMC5805526, “ZB716, a steroidal selective estrogen receptor degrader (SERD), is orally efficacious in blocking tumor growth in mouse xenograft models” (Oncotarget, 2018):
pIC50: −log10 of the molar value. “Also recorded” adds a separate entry of the source.

Tests used:
[1] = molecular target: T1, ERα LBD (Homo sapiens, UniProt P03372); test: MARCoNI ERα-coregulator interaction peptide microarray; type: biochemical; conditions: 10 μM compound, 7 nM GST-tagged ERα LBD, vs apo
T1 construct: using 7 nM GST-tagged ERα LBD (Invitrogen); purchased Invitrogen
T1 sequence (P03372 311-547 limits assumed): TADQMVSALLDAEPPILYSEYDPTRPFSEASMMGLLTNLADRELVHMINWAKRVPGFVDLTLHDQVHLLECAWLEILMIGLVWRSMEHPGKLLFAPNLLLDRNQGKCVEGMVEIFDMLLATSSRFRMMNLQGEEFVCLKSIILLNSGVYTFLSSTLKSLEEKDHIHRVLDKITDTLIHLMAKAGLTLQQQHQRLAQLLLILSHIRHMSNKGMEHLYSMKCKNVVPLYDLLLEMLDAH
Experimental: The modulation of ERα-coregulator interaction by compound was analyzed using MARCoNI (Micro Array Assay for Real-time Coregulator Nuclear receptor Interaction) as described previously using 7 nM GST-tagged ERα LBD (Invitrogen).
Each condition is measured using 3 technical replicates (arrays). After incubation, unbound receptor is removed by washing, and a tiff image of each array is acquired using a CCD camera and receptor binding to each peptide on the array is quantified using dedicated software. For each condition, the three technical replicates are used to calculate mean and S.E.M. ERα binding as well as compound-induced log-fold modulation vs. control for each individual motif. Significance of the modulation is assessed using Student's t-Test.

[2] = test system: MCF-7 breast cancer cells; test: MCF-7 cell growth inhibition; type: cell-based; conditions: Homo sapiens, MCF7, 120 h; 5 days treatment, cell count vs DMSO
Experimental: At the end of treatment, surviving cells were counted and normalized to control cells that were treated with vehicle (DMSO) only. (B) IC50 values were obtained by deriving logarithmic curves from the %cell survival vs. treatment dose plot.

[3] = molecular target: T2, ERα (Homo sapiens, UniProt P03372); test: ER downregulation in MCF-7 cells (Western blot); type: cell-based; conditions: treated for 4 hours, read-out: ERα IC50 (ER downregulation in MCF-7 cells)
T2 construct: MCF-7 cells were plated at a density of 200,000 cells/60mm dish; endogenous in cells; host or cells: MCF-7
T2 sequence (P03372 1-595): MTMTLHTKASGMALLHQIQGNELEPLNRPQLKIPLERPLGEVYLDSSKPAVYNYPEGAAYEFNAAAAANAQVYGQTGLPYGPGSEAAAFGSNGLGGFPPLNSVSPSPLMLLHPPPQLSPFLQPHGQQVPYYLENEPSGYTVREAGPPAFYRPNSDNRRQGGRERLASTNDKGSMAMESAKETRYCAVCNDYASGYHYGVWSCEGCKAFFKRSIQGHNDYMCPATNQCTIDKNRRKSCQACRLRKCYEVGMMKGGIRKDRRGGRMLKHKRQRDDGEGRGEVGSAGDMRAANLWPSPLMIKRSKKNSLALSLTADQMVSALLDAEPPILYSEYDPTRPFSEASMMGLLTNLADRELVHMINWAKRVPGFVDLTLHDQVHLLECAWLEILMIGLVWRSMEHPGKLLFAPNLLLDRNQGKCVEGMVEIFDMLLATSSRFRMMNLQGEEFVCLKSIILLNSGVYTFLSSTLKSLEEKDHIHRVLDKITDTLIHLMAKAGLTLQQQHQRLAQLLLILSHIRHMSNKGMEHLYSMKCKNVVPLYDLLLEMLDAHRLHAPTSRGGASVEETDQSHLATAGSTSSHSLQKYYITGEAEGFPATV
Experimental: MCF-7 cells were plated at a density of 200,000 cells/60mm dish. Media containing the same drug concentrations as the growth curve assay were added on the day following plating (day 0) and allowed to incubate for 5 days for Western blot. Media with the tested compound was changed every other day. Cells were lysed. Lysates were placed on a rotisserie at 4°C for 30 min and then spun at 4°C at 12,000 rcf for 10 min. Supernatants were assayed for protein content, snap-frozen, and stored at −80°C if not run immediately. 50 μg of protein was subjected to Western blot protocol. Membranes were blocked and then incubated with 1:200 dilution of ERα antibody at 4°C overnight followed by 1:10,000 dilution of secondary antibody for 1 hr at room temperature. They were then imaged on a LICOR infrared scanner.

[4] = test system: TM00386 PDX ER+/PR+/HER2- invasive ductal carcinoma; test: Efficacy in patient derived xenograft (PDX) tumor model; type: in vivo, NOD scid gamma (NSG) mice
[5] = Tolerability in tumor bearing animals; conditions: all tumor bearing animals, different oral doses
Experimental: Four to six weeks old female ovariectomized Nu/Nu mice were purchased from Charles River Laboratories (Wilmington, MA). MCF-7 cells were cultured and harvested in the exponential growth phase using a PBS/EDTA solution. The animals were injected bilaterally in the mammary fat pad (MFP) with 5×10^6 viable cells suspended in 50 μL sterile PBS mixed with 100 μL Matrigel (reduced factor; BD Biosciences, Bed- ford, MA). 17b-Estradiol pellets (0.72 mg, 60 day release; Innovative Research of America, Sarasota, FL) were implanted subcutaneously in the lateral area of the neck using a precision trochar (10 gages) at the time of cell injection. Tumors were allowed to form and at day 15 post cell injection […]. […] Tumor sizes were monitored and recorded every other day for three weeks of treatment duration.
In a patient-derived xenograft (PDX) mouse model in which the primary tumor donated by a postmenopausal patient was engrafted in NOD scid gamma (NSG™) mice (TM00386 PDX model, Jackson Lab). […] Tumor sizes were monitored and recorded every other day for three weeks of treatment duration.

Q: With `C[C@]12CC[C@@H]3c4ccc(B(O)O)cc4C[C@@H](CCCCCCCCC[S+]([O-])CCCC(F)(F)C(F)(F)F)[C@H]3[C@@H]1CC[C@@H]2O` (some centres unmarked) [ZB716] as the compound, how does the “modulation of ERα interaction with coactivator motifs (NCOA family)” value [1] read?
A: Its value is “strongly reduced”.

Q: And the pIC50 [2]?
A: The pIC50 was 8.49.

Q: What about the DC50 [3] of the same compound?
A: Its DC50 is 0.8 nM.

Q: And the PDX tumor growth ([4]; ZB716 5 mg/kg PO daily)?
A: Its PDX tumor growth is “as effectively as fulvestrant treatment”.

Q: And the “PDX tumor growth inhibition” value ([4]; ZB716 20 mg/kg PO daily)?
A: The value was “greatest effect on tumor growth inhibition”.

Q: What about the PDX tumor growth ([4]; ZB716 at both doses (5 and 20 mg/kg PO daily)) of the same compound?
A: The PDX tumor growth was “effective in blocking tumor growth; also recorded: regression of tumor comparable to the fulvestrant group”.

Q: And the animal body weights [5]?
A: The animal body weights was “no significant loss or increase of animal body weights”.

Q: What about the “toxicities in the entire course of treatment” value [5] of the same compound?
A: Its value is “no apparent toxicities were observed”.
